Several values for one entry are separate records, joined by “and”; a condition that tells them apart may be missing. Equal entries are not always repeated. Square brackets hold non-standard residues; d marks the D form. Ends that are not written are not given here. Peptide text beside a SMILES is read from it. Nle = CCCC[C@H](N)C(=O)O

One assay deals with T1, E-selectin (Homo sapiens, UniProt P16581).
T1 sequence (P16581 22-554): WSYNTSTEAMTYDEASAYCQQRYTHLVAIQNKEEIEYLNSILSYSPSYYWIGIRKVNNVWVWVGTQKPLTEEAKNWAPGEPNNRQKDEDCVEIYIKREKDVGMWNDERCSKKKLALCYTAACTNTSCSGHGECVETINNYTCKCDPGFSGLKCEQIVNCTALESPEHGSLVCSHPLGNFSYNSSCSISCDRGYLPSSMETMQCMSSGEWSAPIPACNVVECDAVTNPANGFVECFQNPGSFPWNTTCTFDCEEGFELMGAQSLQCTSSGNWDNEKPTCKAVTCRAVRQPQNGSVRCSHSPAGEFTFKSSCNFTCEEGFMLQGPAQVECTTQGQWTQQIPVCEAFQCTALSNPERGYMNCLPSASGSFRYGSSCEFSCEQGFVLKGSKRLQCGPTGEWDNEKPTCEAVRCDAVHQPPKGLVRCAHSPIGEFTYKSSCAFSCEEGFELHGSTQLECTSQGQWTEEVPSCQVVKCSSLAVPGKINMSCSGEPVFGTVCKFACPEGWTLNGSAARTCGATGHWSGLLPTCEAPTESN
The assay can be described thus: HL60 cell adhesion assay (labeled HL60 cells adhering to immobilized E-selectin). Set-up: truncated form comprising the complete extracellular domain (amino acids 1 through 554); made in house. It counts as cell-based. The conditions noted are these: concentration reducing by 50% the binding of HL60 cells to immobilized E-selectin. The method, then:
By comparing test wells with control wells (no receptor), one can determine whether a peptide binds to E-selectin specifically. […] In this regard, HL60 cells are known to contain surface glycoconjugates which bind to E-selectin.
Peptides that block the binding of labeled HL60 cells to E-selectin are then evaluated to determine their IC50 -HL60 in the manner also specified in Example 1.
The assay requires HL60 cells labeled with tritiated thymidine. To label the cells, about 10 million HL60 cells are collected by centrifugation (2500 RPM for 3 minutes) and resuspended in 15 mL of DMEM/F12 plus 5% fetal calf serum containing 2 μCi/mL of tritiated thymidine (Amersham). The cells are then placed in a T75 flask and incubated at 37° C. for 24 hours. The cells are then collected by centrifugation, washed twice with RPMI/HEPES/0.1% FCS, and resuspended in the same solution at a concentration of about one to two million cells per mL. About 100 μL of this cell preparation are used per well of a 96-well microtiter dish in the assay.
The wells of the microtiter dish were first coated with the anti-receptor immobilizing antibody, an anti-HPAP-tail antibody, using about 2.5 μg of antibody per well. […]
After the test compound incubation period, 100 μL of labeled HL60 cells were added to each well, and the microtiter plate was incubated at 4° C. for 30 minutes. […] After this incubation, aliquots were removed from each well and placed in scintillation vials; scintillation fluid was added to each vial; and the radioactivity in each aliquot was quantitated by liquid scintillation counting. […]
The concentration of any peptide or peptide mimetic required to reduce by 50% the binding of HL60 cells to E-selectin as per the assay of Example 1 is determined by the following procedure. […] (SEQ ID NO 23), was determined. […]
A word on the IC50: it is the midpoint of a concentration-inhibition curve. A lower IC50 goes with greater potency in that assay. With DITWDQLWDLMK, the half-inhibitory concentration (IC50) is < 10000 nM and 10000 nM.

Turning to HITWDQLWNVMN, the IC50 was 50000 nM and 100000 nM and ~50000 nM.

The assay is the same for the next values; noted with them: peptide at 200 μM, FIG. 1.
HITWDQLWNVMN: the “blocking of HL60 cell binding that occurred in the absence of added compound” value is reported as “over 80%”.

The next assay addresses T1, E-selectin. The assay can be described thus: IC50-standard competitive binding assay (radiolabeled standard peptide on immobilized E-selectin). Set-up: truncated form comprising the complete extracellular domain (amino acids 1 through 554); made in house; a baculovirus soluble form is also mentioned as an option. The conditions noted are these: inhibits 50% of binding of radiolabeled standard […] to E-selectin. The text has this:
This latter peptide has strong binding affinity to E-selectin and, accordingly, was used as a standard in a competitive binding assay with candidate peptides and peptide mimetics in order to determine relative binding affinities for E-selectin.
This example measures the concentration of peptide or peptide mimetic required to inhibit 50% of the binding of a radiolabeled standard to E-selectin and the resulting IC50 value is referred to as the "IC50 -standard". In this example, the standard corresponds to the synthetic peptide […] (SEQ ID NO 114) which comprises a known initial seven amino acid group which is a substrate for protein kinase A followed by a 2 amino acid spacer and a 12 amino acid sequence which corresponds to the peptide identified by SEQ ID NO 3 which has an IC50 -HL60 of 10 μM. The peptide is radiolabeled by phosphorylation using either […] or ^33 P phosphate by conventional methods via the protein kinase A. The example is a competitive assay in which 6.5 picograms at 1400 Ci/mmol (65000 cpm) of radiolabelled standard (1400 Ci/mmol) is combined with a titered amount of candidate peptide or peptide mimetic in a constant volume of 30 μL. The combined solution is then added to E-selectin immobilized onto a solid surface in the manner described above. The resulting mixture is then incubated for about 120 minutes to permit equilibrium binding to be achieved. Afterwards, unbound materials are separated from bound materials by conventional methods (e.g., washing) and the amount of the […] bound to E-selectin is determined by scintillation counting. The assay is repeated over several concentrations of candidate peptide or peptide mimetic and the results are entered into a graph whose y axis is the amount of radiolabeled standard bound to E-selectin (measured in cpm) and the x axis is the amount of candidate peptide or peptide mimetic. The results are graphically extrapolated to determine the concentration at which the peptide or peptide mimetic will reduce by 50% the amount of radiolabeled standard bound to E-selectin. This concentration is taken as the IC50 -standard for that peptide or peptide mimetic.
`CCCC[C@H](NC(=O)[C@H](CC(C)C)NC(=O)[C@H](CC(=O)O)NC(=O)[C@H](Cc1c[nH]c2ccccc12)NC(=O)[C@H](CC(C)C)NC(=O)[C@H](CCC(N)=O)NC(=O)[C@H](CC(=O)O)NC(=O)[C@H](Cc1c[nH]c2ccccc12)NC(=O)[C@@H](NC(=O)[C@@H](NC(=O)[C@H](CC(=O)O)NC(=O)CNC(=O)[C@@H](N)CC(=O)O)[C@@H](C)CC)[C@@H](C)O)C(=O)N[C@@H](CCCCN)C(=O)O` (H-DGDITWDQLWDL[Nle]K-OH) came in with an IC50 of 42 nM.

Take `CCCC[C@H](NC(=O)[C@H](CCCC)NC(=O)[C@H](CC(N)=O)NC(=O)[C@H](Cc1c[nH]c2ccccc12)NC(=O)[C@H](CC(C)C)NC(=O)[C@H](CCC(N)=O)NC(=O)[C@H](C)NC(=O)[C@H](Cc1c[nH]c2ccccc12)NC(=O)[C@@H](NC(=O)[C@@H](NC(=O)[C@@H](N)CC(=O)O)[C@@H](C)CC)[C@@H](C)O)C(=O)N[C@@H](CC(N)=O)C(=O)O` (H-DITWAQLWN[Nle][Nle]N-OH): the IC50 was found to be 425 nM.

`CC[C@H](C)[C@H](NC(=O)[C@@H](N)CC(=O)O)C(=O)N[C@H](C(=O)N[C@@H](Cc1c[nH]c2ccccc12)C(=O)N[C@@H](CC(=O)O)C(=O)N[C@@H](CCC(N)=O)C(=O)N[C@@H](CC(C)C)C(=O)N[C@@H](Cc1c[nH]c2ccccc12)C(=O)N[C@@H](CC(=O)O)C(=O)N[C@@H](CC(C)C)C(=O)N[C@@H](CCSC)C(=O)N[C@H](CCCCN)C(=O)O)[C@@H](C)O` (H-DITWDQLWDLM[dK]-OH) registered an IC50 of 1000 nM.

The compound `CCCC[C@H](NC(=O)[C@H](CC(C)C)NC(=O)[C@H](CC(=O)O)NC(=O)[C@H](Cc1c[nH]c2ccccc12)NC(=O)[C@H](CC(C)C)NC(=O)[C@H](CCC(N)=O)NC(=O)[C@H](CC(=O)O)NC(=O)[C@H](Cc1c[nH]c2ccccc12)NC(=O)[C@@H](NC(=O)[C@@H](NC(=O)[C@@H](N)CC(=O)O)[C@@H](C)CC)[C@@H](C)O)C(=O)N[C@@H](CCCCN)C(=O)O` (H-DITWDQLWDL[Nle]K-OH) displayed an IC50 of 23 nM.

Compound `CC[C@H](C)[C@H](NC(=O)[C@@H](N)CC(=O)O)C(=O)N[C@H](C(=O)N[C@@H](Cc1c[nH]c2ccccc12)C(=O)N[C@@H](CC(=O)O)C(=O)N[C@@H](CCC(N)=O)C(=O)N[C@@H](CC(C)C)C(=O)N[C@@H](Cc1c[nH]c2ccccc12)C(=O)N[C@@H](CC(=O)O)C(=O)N[C@H](CC(C)C)C(=O)N[C@@H](CCSC)C(=O)N[C@@H](CCCCN)C(=O)O)[C@@H](C)O` (H-DITWDQLWD[dL]MK-OH) showed an IC50 of 33000 nM.

Turning to `CC[C@H](C)[C@H](NC(=O)[C@@H](N)CC(=O)O)C(=O)N[C@H](C(=O)N[C@@H](Cc1c[nH]c2ccccc12)C(=O)N[C@H](CC(=O)O)C(=O)N[C@@H](CCC(N)=O)C(=O)N[C@@H](CC(C)C)C(=O)N[C@@H](Cc1c[nH]c2ccccc12)C(=O)N[C@@H](CC(=O)O)C(=O)N[C@@H](CC(C)C)C(=O)N[C@@H](CCSC)C(=O)N[C@@H](CCCCN)C(=O)O)[C@@H](C)O` (H-DITW[dD]QLWDLMK-OH), the IC50 came out at 34 nM.

With `CC[C@H](C)[C@H](NC(=O)[C@@H](N)CC(=O)O)C(=O)N[C@@H](C(=O)N[C@@H](Cc1c[nH]c2ccccc12)C(=O)N[C@@H](CC(=O)O)C(=O)N[C@@H](CCC(N)=O)C(=O)N[C@@H](CC(C)C)C(=O)N[C@@H](Cc1c[nH]c2ccccc12)C(=O)N[C@@H](CC(=O)O)C(=O)N[C@@H](CC(C)C)C(=O)N[C@@H](CCSC)C(=O)N[C@@H](CCCCN)C(=O)O)[C@H](C)O` (H-DI[dT]WDQLWDLMK-OH), the IC50 amounted to 2700 nM.

`CC[C@@H](C)[C@@H](NC(=O)[C@@H](N)CC(=O)O)C(=O)N[C@H](C(=O)N[C@@H](Cc1c[nH]c2ccccc12)C(=O)N[C@@H](CC(=O)O)C(=O)N[C@@H](CCC(N)=O)C(=O)N[C@@H](CC(C)C)C(=O)N[C@@H](Cc1c[nH]c2ccccc12)C(=O)N[C@@H](CC(=O)O)C(=O)N[C@@H](CC(C)C)C(=O)N[C@@H](CCSC)C(=O)N[C@@H](CCCCN)C(=O)O)[C@@H](C)O` (H-D[dI]TWDQLWDLMK-OH) had an IC50 of 27 nM.

Compound `CCCC[C@H](NC(=O)[C@H](CC(C)C)NC(=O)[C@H](CC(=O)O)NC(=O)[C@H](Cc1c[nH]c2ccccc12)NC(=O)[C@H](CC(C)C)NC(=O)[C@H](CCC(N)=O)NC(=O)[C@H](CC(=O)O)NC(=O)[C@H](Cc1c[nH]c2ccccc12)NC(=O)[C@@H](NC(=O)[C@@H](NC(=O)[C@@H](N)CCC(N)=O)[C@@H](C)CC)[C@@H](C)O)C(=O)N[C@@H](CCCCN)C(=O)O` (H-QITWDQLWDL[Nle]K-OH) came in with an IC50 of 65 nM.

Compound `CC[C@H](C)[C@H](NC(=O)[C@H](N)CC(=O)O)C(=O)N[C@H](C(=O)N[C@@H](Cc1c[nH]c2ccccc12)C(=O)N[C@@H](CC(=O)O)C(=O)N[C@@H](CCC(N)=O)C(=O)N[C@@H](CC(C)C)C(=O)N[C@@H](Cc1c[nH]c2ccccc12)C(=O)N[C@@H](CC(=O)O)C(=O)N[C@@H](CC(C)C)C(=O)N[C@@H](CCSC)C(=O)N[C@@H](CCCCN)C(=O)O)[C@@H](C)O` (H-[dD]ITWDQLWDLMK-OH) gave an IC50 of 25 nM.

In the case of AEKWDQLWHVMNPAESQ, the IC50 came to 65 nM.

Turning to DGDITWDQLWDLMK, the half-maximal inhibitory concentration (IC50) was 4 nM.

For DITWDELWKIMN, the half-inhibitory concentration (IC50) was 7 nM.

The compound DITWDQLWDLMK gave an IC50 of 3 nM.

In the case of DITWDQLWDLMK-NH2, the IC50 came out at 22 nM.

DYSWHDLWEMMS yielded an IC50 of 16 nM.

The compound DYTWFELWDMMQ yielded a half-inhibitory concentration (IC50) of 6 nM.

With HITWDQLWRIMT, the concentration for half-maximal inhibition (IC50) was 28 nM.

QITWAQLWNMMK: the IC50 turned out to be 12 nM.

For RNMSWLELWEHMK, the IC50 is 35 nM.

Staying with this assay, now noted: inhibits 50% of binding of radiolabeled standard to E-selectin.
As for ITWDQLWDLMK, the IC50 amounted to 11 nM.

For the compound TWDQLWDLMK, the IC50 stood at 12000 nM.

The record behind these values is US5643873A, “Peptides and compounds that bind selectins including endothelial leukocyte adhesion molecule 1” (Affymax Technologies N.V., priority 1994, dated 1997).
